According to US12077605B2, “Cysteine protease inhibitors and methods of use thereof” (ANIXA BIOSCIENCES, INC., priority 2022, dated 2024):

Target: SARS-CoV-2 main protease M^pro (Severe acute respiratory syndrome coronavirus 2 (2019-nCoV) (SARS-CoV-2), UniProt P0DTD1)
Assay: Mpro enzyme activity assay (biochemical FRET-based)
Settings: recombinant Mpro (Ser1-Gln306); EDANS/Dabcyl FRET substrate peptide 2 μM; 30 min pre-incubation; pH 7.3; read-out: Mpro inhibition IC50

CNC(=O)C(=O)[C@H](CN1CCNC1=O)NC(=O)[C@H](CC(C)C)NC(=O)c1cc2c(OC)cccc2[nH]1 [compound 2, 4-methoxy-N-((S)-4-methyl-1-(((S)-4-(methylamino)-3,4-dioxo-1-(2-oxoimidazolidin-1-yl)butan-2-yl)amino)-1-oxopentan-2-yl)-1H-indole-2-carboxamide]
IC50: 114 nM
